# Read-outs that look alike come from different tables or passages of the source.
# Tests used:
# [1] = tested on: P. falciparum 3D7; test: Antimalarial assay against P. falciparum 3D7 (48 h growth, DNA fluorescent dye); format: cell-based, Plasmodium falciparum; details: for IC50: Plasmodium falciparum
# Method: Plasmodium falciparum strain 3D7 was cultured in complete medium (RPMI-1640 supplemented with 10% Albumax II) using O Rh^+ red blood cells in a microaerobic environment (5% CO2, 5% O2, 90% N2). IC50 assay plates were prepared using fourfold serially diluted test compounds in complete medium to a final volume of 50 μL. Then, 50 μL of parasite inoculum at 2% parasitemia ring stage and 1% hematocrit was added to each well and incubated for 48 h in a microaerobic environment. The assay was terminated by freezing at -20 °C before growth measurement. Parasite growth was measured adding 100 μL of lysis buffer supplemented with 1× DNA fluorescent dye (UltraPower, […], Tokyo, Japan), and the fluorescent signal was measured at 495/530 nm. The IC50 value was calculated by GraphPad Prism 9.0 software (La Jolla, California, USA) using the dose-response (four-parameter) function. Artemisinin at 1 μM and complete medium were used as positive and negative controls, respectively.
# [2] = tested on: MCF-7 cells; test: Antiproliferative assay against MCF-7 (MTT, 72 h); format: cell-based, Human; details: for IC50: Homo sapiens, MCF7, MCF-7 cells, 72 h, MTT; for cytotoxicity against MCF-7 cells, in words: compared with the parent compound
# Method: Human breast cancer cells (MCF-7) purchased from ATCC were seeded at 2 × 10^3 cells/well on a 96-well black flat-bottom plate and were cultured in high-glucose DMEM (Dulbecco’s modified Eagle medium) supplemented with 10% fetal bovine serum and 1% penicillin/streptomycin. The culture was incubated at 37 °C, 5% CO2 for 24 h. After the incubation period, the test compounds were added into the cell plate at serially diluted concentrations (20, 2, 0.2, 0.02, 0.002, and 0.0002 μM), and the culture was incubated for 72 h at 37 °C, 5% CO2. After the 72 h incubation, the cultured media containing compounds were removed, and the serum-free media containing MTT were added to the same well with additional incubation for 3 h at 37 °C, 5% CO2. After 3 h incubation, the serum-free media containing MTT were removed, and DMSO was added into the same well; the resulting solution was measured for its absorbance at 570 nm using a Multimode Microplate Reader (ENVISION) (PerkinElmer, USA). The IC50 value was calculated using GraphPad. Doxorubicin at 10 µM was used as a positive control in this assay.
# [3] = tested on: P. falciparum 3D7; set-up: method as in doi:10.3390/M1358; details: earlier report of the group; read-out: IC50 against P. falciparum 3D7; cited from earlier work
# [4] = tested on: human ovarian cancer (SKOV3); set-up: method as in earlier work; details: patent; cited from earlier work
# [5] = tested on: P. falciparum strains; set-up: method as in PMID 24900261, PMID 26317851, PMID 28513586; details: multiple stages of the malaria parasite; cited from earlier work
# [6] = Table 2, blood-stage P. falciparum 3D7, various amino-acid linkers, read-out: IC50 (µM) 3D7 ± SD
# [7] = P. falciparum 3D7, read-out: antimalarial activity against 3D7
# [8] = Table 3, blood-stage P. falciparum 3D7, various amine side chains, read-out: IC50 (µM) 3D7 ± SD
Compound,"IC50 [1, 6] [µM]",IC50 [2] [µM],"IC50 [1, 8] [µM]","antimalarial activity against 3D7, in words ([1]; P. falciparum 3D7)",further results
CCOC(=O)c1sc(NC(=O)[C@H](C(C)C)n2c(=O)[nH]c3ccccc3c2=O)nc1OC [Compound 3],,,,,"cytotoxicity against SKOV3, in words [4]: highly potent cytotoxicity"
COc1cccc(NCCn2c(=O)[nH]c3ccccc3c2=O)c1 [Compound 4],> 10,,,,
COc1cccc(NC(=O)Cn2c(=O)[nH]c3ccccc3c2=O)c1 [Compound 5],> 10,,,,
COc1cccc(NC(=O)[C@H](C)n2c(=O)[nH]c3ccccc3c2=O)c1 [Compound 6],> 10,,,,
COc1cccc(NC(=O)[C@H](CC(C)C)n2c(=O)[nH]c3ccccc3c2=O)c1 [Compound 7],3.25 ± 0.21,,,,"IC50 [1, 7]: 1 to 3 µM"
CCC(C(=O)Nc1cccc(OC)c1)n1c(=O)[nH]c2ccccc2c1=O (stereo not drawn) [Compound 8],0.586 ± 0.032,,,potent sub-micromolar activity,
CCC[C@@H](C(=O)Nc1cccc(OC)c1)n1c(=O)[nH]c2ccccc2c1=O [Compound 9],1.11 ± 0.1,,,,"IC50 [1, 7]: 1 to 3 µM"
CC(C)[C@@H](C(=O)Nc1ccc(F)c(F)c1)n1c(=O)[nH]c2ccccc2c1=O [Compound 23],,9.74,0.038 ± 0.009,,"cytotoxicity against MCF-7 cells, in words [2]: slightly higher cytotoxicity"
CC(C)[C@@H](C(=O)Nc1ccc(Cl)c(Cl)c1)n1c(=O)[nH]c2ccccc2c1=O [Compound 26],,> 20,0.406 ± 0.034,less potent antimalarial,"cytotoxicity against MCF-7 cells, in words [2]: slightly higher cytotoxicity"
CC(C)[C@@H](C(=O)Nc1ccc(F)c(Cl)c1)n1c(=O)[nH]c2ccccc2c1=O [Compound 27],,> 20,0.059 ± 0.012,,
COc1ccc(NC(=O)[C@H](C(C)C)n2c(=O)[nH]c3ccccc3c2=O)cc1 [Compound 29],,> 20,> 10,dramatic loss in the antimalarial activity,
COc1ccccc1CNC(=O)CCn1c(=O)[nH]c2ccsc2c1=O [MMV019066],,,,,parasite growth inhibitory activity [5]: < 1 µM
COc1ccccc1CNC(=O)CCn1c(=O)[nH]c2ccccc2c1=O [MMV665916],,,,,parasite growth inhibitory activity [5]: < 1 µM

# Further lines, with some results ahead:
"IC50 [1, 6] [µM]",IC50 [2] [µM],"IC50 [1, 8] [µM]",Compound,"antimalarial activity against 3D7, in words ([1]; P. falciparum 3D7)",further results
0.219 ± 0.024,17.5,,COc1cccc(NC(=O)[C@H](C(C)C)n2c(=O)[nH]c3ccccc3c2=O)c1 [Compound 2],,IC50 [3]: ~200 nM
,> 20,0.607 ± 0.03,CC(C)[C@@H](C(=O)Nc1ccccc1)n1c(=O)[nH]c2ccccc2c1=O [Compound 18],dramatic loss in the antimalarial activity,
,> 20,2.89 ± 0.401,CC(C)[C@@H](C(=O)Nc1cccnc1)n1c(=O)[nH]c2ccccc2c1=O [Compound 19],decrease in antimalarial activity,
,> 20,1.41 ± 0.115,CC(C)[C@@H](C(=O)Nc1ccncc1)n1c(=O)[nH]c2ccccc2c1=O [Compound 20],decrease in antimalarial activity,
,> 20,0.036 ± 0.005,CC(C)[C@@H](C(=O)Nc1cccc(F)c1)n1c(=O)[nH]c2ccccc2c1=O [Compound 21],excellent activity,
,> 20,0.36 ± 0.034,CC(C)[C@@H](C(=O)Nc1ccc(F)cc1)n1c(=O)[nH]c2ccccc2c1=O [Compound 22],good antimalarial activity,
,> 20,0.022 ± 0.005,CC(C)[C@@H](C(=O)Nc1cccc(Cl)c1)n1c(=O)[nH]c2ccccc2c1=O [Compound 24],excellent activity,
,10.5,0.711 ± 0.038,CC(C)[C@@H](C(=O)Nc1ccc(Cl)cc1)n1c(=O)[nH]c2ccccc2c1=O [Compound 25],good antimalarial activity,
,> 20,> 10,CC(C)[C@@H](C(=O)NCc1ccccc1)n1c(=O)[nH]c2ccccc2c1=O [Compound 28],dramatic loss in the antimalarial activity,
